Where “and” joins values, the source holds several entries; their conditions need not be identical. Identical values can stand only once. Like-named read-outs stand apart in the source and are kept apart here.
Legend:
5-HT2A receptor = target: T1, 5-HT2A receptor (Homo sapiens, UniProt P28223); experiment: FLIPR Ca2+ flux functional assay, 5-HT2A; type: cell-based; conditions: agonist activity, Ca2+ flux, HEK293 cells; for EC50: read-out: 5-HT2A EC50
T1 construct: host or cells: HEK293

5-HT2B receptor = target: T2, 5-HT2B receptor (Homo sapiens, UniProt P41595); experiment: cell-based; conditions: agonist activity, Ca2+ flux, CHO-K1 cells; for EC50: read-out: 5-HT2B EC50
T2 construct: host or cells: CHO-K1
T2 sequence (P41595 whole entry): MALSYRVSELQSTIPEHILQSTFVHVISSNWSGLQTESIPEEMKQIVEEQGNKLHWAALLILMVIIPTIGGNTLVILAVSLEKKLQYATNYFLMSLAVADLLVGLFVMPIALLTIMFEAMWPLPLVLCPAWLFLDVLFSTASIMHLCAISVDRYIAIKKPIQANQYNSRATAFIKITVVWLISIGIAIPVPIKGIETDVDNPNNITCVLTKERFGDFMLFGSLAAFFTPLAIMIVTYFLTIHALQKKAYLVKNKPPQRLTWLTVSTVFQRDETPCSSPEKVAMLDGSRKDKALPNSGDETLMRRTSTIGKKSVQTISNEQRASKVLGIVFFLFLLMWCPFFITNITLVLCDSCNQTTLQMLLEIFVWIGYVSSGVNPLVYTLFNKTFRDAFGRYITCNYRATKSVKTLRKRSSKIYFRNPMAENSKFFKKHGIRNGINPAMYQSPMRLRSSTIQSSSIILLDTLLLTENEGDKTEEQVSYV

5-HT2C receptor = target: T3, 5-HT2C receptor (Homo sapiens, UniProt P28335); experiment: cell-based; conditions: agonist activity, Ca2+ flux, HEK293 cells; for EC50: read-out: 5-HT2C EC50
T3 construct: host or cells: HEK293
T3 sequence (P28335 33-458): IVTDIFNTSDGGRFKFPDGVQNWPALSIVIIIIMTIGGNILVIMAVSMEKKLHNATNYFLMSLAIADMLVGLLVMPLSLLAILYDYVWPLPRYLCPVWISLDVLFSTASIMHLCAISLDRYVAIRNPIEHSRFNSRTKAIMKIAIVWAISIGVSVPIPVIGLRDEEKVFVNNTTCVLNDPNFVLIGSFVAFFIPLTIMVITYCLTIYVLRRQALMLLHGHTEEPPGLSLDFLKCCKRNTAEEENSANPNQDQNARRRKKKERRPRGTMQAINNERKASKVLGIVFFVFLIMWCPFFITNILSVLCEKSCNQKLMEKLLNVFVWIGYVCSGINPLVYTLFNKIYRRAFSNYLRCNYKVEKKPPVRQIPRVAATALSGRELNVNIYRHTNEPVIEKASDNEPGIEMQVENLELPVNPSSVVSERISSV

[1] = In vivo pharmacokinetics, plasma and brain exposure after IP dosing; parameters: species or system male C57BL/6 mice
Protocol: The systemic exposure of selected examples was studied in non-fasted male C57BL/6 mice weighing between 18.9-25.5 g. Mice had access to food and water ad libitum throughout the pre- and post-dose sampling period.
On the day of dosing, the formulation of each compound was prepared by dissolving solid compound in phosphate buffer saline (50 mM) using vortexing, creating colourless solutions (pH 6.4-6.5) for each compound.
Compounds were dosed to mice by IP injection (10 mL/kg dose volume via a 27G needle; n=9 mice per compound) and blood samples were collected at 5 and 30 min; 1, 2 and 4 h post-dose (n=3 mice per time point for each compound). A maximum of three blood samples were obtained from each mouse, with plasma samples being taken via submandibular bleed (approximately 120 μL). Once collected, blood samples were centrifuged immediately, supernatant plasma was removed, and stored at −80° C. until analysis by LCMS. In addition, at the 5 and 30 min and 4 h post-dose time points, the whole brain was rapidly removed from the carcass soon after the blood collection. The whole brains were blotted to remove excess blood, placed into pre-weighed polypropylene vials, and weighed. The brains were snap frozen in dry ice and subsequently stored frozen (−80° C.) until analysis.
Concentrations of test compound in plasma and tissue samples were determined using an LCMS/MS method validated for linearity, accuracy, precision, matrix factor and recovery (Table 2). Test compound standard solutions were diluted from a concentrated stock solution (32 mM in H2O) using 50% can in H2O (v/v) and a calibration curve was prepared in a matched matrix to the test samples.
Plasma: The plasma calibration curve was prepared by spiking aliquots of blank mouse plasma (25 μL) with test compound standard solutions (5 μL) and internal standard solution (5 μL of diazepam, 5 μg/mL in 50% acetonitrile in water). Test plasma samples (25 μL) were thawed, mixed, and then spiked with internal standard solution (5 μL). Plasma protein precipitation was performed by addition of acetonitrile (3-fold volume ratio) and thorough vortex mixing. Samples were centrifuged (RCF=9391×g) for 3 minutes and the supernatant (90 μL) was collected for analysis.
Tissue: Pre-weighed tissue samples (brain) were homogenised using a glass rod in buffer containing an EDTA/potassium fluoride solution (0.1 M/4 mg/mL) as a stabilisation cocktail to minimise the potential for ex vivo degradation (3 mL cocktail/g tissue). The tissue homogenate was briefly centrifuged (RCF=79×g) for 10 seconds to separate the foam layer before transferring an aliquot of the tissue homogenate (200 μL) to a fresh Eppendorf tube for sample extraction. Calibration standards were prepared by spiking blank brain homogenate (200 μL) with the solution standards (10 μL) and the internal standard (10 μL). Study samples were similarly prepared, except that acetonitrile (10 μL) was added instead of solution standards to maintain the same volume. Protein precipitation was carried out by the addition of a 3-fold volume of acetonitrile, followed by vortex mixing and centrifugation (RCF=9391×g) for 3 min to recover the supernatant for analysis.
Replicate analysis: Triplicate analytical replicate (ARs) samples were prepared similarly to the standards for each sample type at three concentrations (50, 500 and 2,000 ng/ml) and repeat injections of these ARs were included throughout the analytical run to assess assay performance. The extraction of the test compound from the standards and ARs were conducted as described above.

[2] = 0.083 h, IP 10 mg/kg, individual mouse, 10 mg/kg
[3] = 0.5 h, IP 10 mg/kg, individual mouse, 10 mg/kg
[4] = 4 h, IP 10 mg/kg, individual mouse, 10 mg/kg
[5] = mouse, plasma, male C57BL/6 mice, IP 10 mg/kg

T1 sequence (P28223 whole entry): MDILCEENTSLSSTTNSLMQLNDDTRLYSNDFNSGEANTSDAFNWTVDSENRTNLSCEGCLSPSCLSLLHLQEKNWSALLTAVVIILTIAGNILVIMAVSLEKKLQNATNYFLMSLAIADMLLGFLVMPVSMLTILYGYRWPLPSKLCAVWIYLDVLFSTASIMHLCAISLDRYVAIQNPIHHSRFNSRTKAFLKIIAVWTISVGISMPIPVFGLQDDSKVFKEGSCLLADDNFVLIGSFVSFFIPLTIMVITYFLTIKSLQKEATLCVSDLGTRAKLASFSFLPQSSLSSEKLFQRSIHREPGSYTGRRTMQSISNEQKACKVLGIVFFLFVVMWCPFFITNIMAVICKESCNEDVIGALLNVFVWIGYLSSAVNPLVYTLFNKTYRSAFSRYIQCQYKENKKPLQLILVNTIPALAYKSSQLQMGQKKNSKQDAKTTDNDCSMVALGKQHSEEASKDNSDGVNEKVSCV

CCN(C)CCc1c[nH]c2cc(C)c(OC)cc12 [Example P-42, N-ethyl-2-(5-methoxy-6-methyl-1H-indol-3-yl)-N-methylethan-1-amine]
Emax (5-HT2A receptor): 88.2% | EC50 (5-HT2A receptor): 26.5 nM | Emax (5-HT2B receptor): 8.39% | EC50 (5-HT2B receptor): > 10000 nM | Emax (5-HT2C receptor): 85.8% | EC50 (5-HT2C receptor): 68.5 nM | B:P Ratio, Individual [1, 2]: 3.8 and 7.1 and 2.0 | Plasma Concentration, Individual [1, 2]: 1760 nM and 3440 nM | concentration at 0.5 h ([1]; 0.083 h, IP 10 mg/kg, individual mouse, 10 mg/kg, read-out: Brain Parenchyma Concentration, Individual): 12600 nM and 7010 nM | B:P Ratio, Individual [1, 3]: 20 and 11 | Plasma Concentration, Individual [1, 3]: 1880 nM and 1820 nM | concentration at 0.5 h ([1]; 0.5 h, IP 10 mg/kg, individual mouse, 10 mg/kg, read-out: Brain Parenchyma Concentration, Individual): 37300 nM and 19900 nM | B:P Ratio, Individual [1, 4]: 18 and 14 and 8.2 | Plasma Concentration, Individual [1, 4]: 38.4 nM and 20.9 nM | concentration at 0.5 h ([1]; 4 h, IP 10 mg/kg, individual mouse, 10 mg/kg, read-out: Brain Parenchyma Concentration, Individual): 408 nM and 530 nM and 171 nM | concentration at 0.083 h ([1]; male, C57BL/6, mouse, brain, ip, 10 mg/kg, 0.083 h, individual mouse, read-out: Brain Parenchyma Concentration, Individual): 10100 nM | concentration at 0.083 h ([1]; male, C57BL/6, mouse, brain, ip, 10 mg/kg, 0.083 h, n = 3, read-out: Brain Parenchyma Concentration, Mean ± SD): 9900 ± 2790 nM | concentration at 0.5 h ([1]; male, C57BL/6, mouse, brain, ip, 10 mg/kg, 0.5 h, individual mouse, read-out: Brain Parenchyma Concentration, Individual): 21300 nM | concentration at 0.5 h ([1]; male, C57BL/6, mouse, brain, ip, 10 mg/kg, 0.5 h, n = 3, read-out: Brain Parenchyma Concentration, Mean ± SD): 26200 ± 9680 nM | concentration at 4 h ([1]; male, C57BL/6, mouse, brain, ip, 10 mg/kg, 4 h, n = 3, read-out: Brain Parenchyma Concentration, Mean ± SD): 370 ± 182 nM | Kp at 0.083 h ([1]; male, C57BL/6, mouse, brain/plasma, ip, 10 mg/kg, 0.083 h, n = 3, read-out: B:P Ratio, Mean ± SD): 4.3 ± 2.6 | Kp at 0.5 h ([1]; male, C57BL/6, mouse, brain/plasma, ip, 10 mg/kg, 0.5 h, individual mouse, read-out: B:P Ratio, Individual): 18 | Kp at 0.5 h ([1]; male, C57BL/6, mouse, brain/plasma, ip, 10 mg/kg, 0.5 h, n = 3, read-out: B:P Ratio, Mean ± SD): 16 ± 4.6 | Kp at 4 h ([1]; male, C57BL/6, mouse, brain/plasma, ip, 10 mg/kg, 4 h, n = 3, read-out: B:P Ratio, Mean ± SD): 13 ± 5 | concentration at 0.083 h ([1]; male, C57BL/6, mouse, plasma, ip, 10 mg/kg, 0.083 h, individual mouse, read-out: Plasma Concentration, Individual): 2650 nM | concentration at 0.083 h ([1]; male, C57BL/6, mouse, plasma, ip, 10 mg/kg, 0.083 h, n = 3, read-out: Plasma Concentration, Mean ± SD): 2620 ± 840 nM | concentration at 0.5 h ([1]; male, C57BL/6, mouse, plasma, ip, 10 mg/kg, 0.5 h, individual mouse, read-out: Plasma Concentration, Individual): 1200 nM | concentration at 0.5 h ([1]; male, C57BL/6, mouse, plasma, ip, 10 mg/kg, 0.5 h, n = 3, read-out: Plasma Concentration, Mean ± SD): 1640 ± 376 nM | concentration at 4 h ([1]; male, C57BL/6, mouse, plasma, ip, 10 mg/kg, 4 h, individual mouse, read-out: Plasma Concentration, Individual): 22.5 nM | concentration at 4 h ([1]; male, C57BL/6, mouse, plasma, ip, 10 mg/kg, 4 h, n = 3, read-out: Plasma Concentration, Mean ± SD): 27.3 ± 9.7 nM | Cmax [1, 5]: 2620 nM | Tmax [1, 5]: 4.98 min | AUC(0-inf) ([1]; mouse, plasma, male C57BL/6 mice, IP 10 mg/kg, read-out: Plasma AUC0-inf): 2.36 µM·h | half-life ([1]; mouse, male C57BL/6 mice, IP 10 mg/kg, plasma, read-out: Apparent T1/2 (converted)): 36 min

CCN(CC)CCc1c[nH]c2ccc(F)c(F)c12 [Example P-145, 2-(4,5-difluoro-1H-indol-3-yl)-N,N-diethylethan-1-amine]
Emax (5-HT2A receptor): 98.5% | EC50 (5-HT2A receptor): 10.6 nM | Emax (5-HT2B receptor): 51.5% | EC50 (5-HT2B receptor): 23.3 nM | Emax (5-HT2C receptor): 72.3% | EC50 (5-HT2C receptor): 102 nM

CC(C)N(CCc1c[nH]c2ccc(F)c(F)c12)C(C)C [Example P-146, N-(2-(4,5-difluoro-1H-indol-3-yl)ethyl)-N-isopropylpropan-2-amine]
Emax (5-HT2A receptor): 98.4% | EC50 (5-HT2A receptor): 10.1 nM | Emax (5-HT2B receptor): 155% | EC50 (5-HT2B receptor): 21.4 nM | Emax (5-HT2C receptor): 93.1% | EC50 (5-HT2C receptor): 25.4 nM

CN(C)CCc1c[nH]c2cc(F)cc(F)c12 [Example P-147, 2-(4,6-difluoro-1H-indol-3-yl)-N,N-dimethylethan-1-amine]
Emax (5-HT2A receptor): 91.6% | EC50 (5-HT2A receptor): 29.2 nM | Emax (5-HT2B receptor): 15.3% | EC50 (5-HT2B receptor): ≥ 10000 nM | Emax (5-HT2C receptor): 15.3%

CCN(C)CCc1c[nH]c2cc(F)cc(F)c12 [Example P-148, 2-(4,6-difluoro-1H-indol-3-yl)-N-ethyl-N-methylethan-1-amine]
Emax (5-HT2A receptor): 78.9% | EC50 (5-HT2A receptor): 51.4 nM | Emax (5-HT2B receptor): 35.6% | EC50 (5-HT2B receptor): ≥ 10000 nM | Emax (5-HT2C receptor): 35.6%

CC(C)N(C)CCc1c[nH]c2cc(F)cc(F)c12 [Example P-149, N-(2-(4,6-difluoro-1H-indol-3-yl)ethyl)-N-methylpropan-2-amine]
Emax (5-HT2A receptor): 66.8% | EC50 (5-HT2A receptor): 52.4 nM | Emax (5-HT2B receptor): 30.1% | EC50 (5-HT2B receptor): ≥ 10000 nM | Emax (5-HT2C receptor): 30.1%

CN(C)CCc1c[nH]c2cc(F)c(F)cc12 [Example P-153, 2-(5,6-difluoro-1H-indol-3-yl)-N,N-dimethylethan-1-amine]
Emax (5-HT2A receptor): 74.8% | EC50 (5-HT2A receptor): 29.5 nM | Emax (5-HT2B receptor): 10.6% | EC50 (5-HT2B receptor): > 10000 nM | Emax (5-HT2C receptor): 93.6% | EC50 (5-HT2C receptor): 5.35 nM

CCN(C)CCc1c[nH]c2cc(F)c(F)cc12 [Example P-154, 2-(5,6-difluoro-1H-indol-3-yl)-N-ethyl-N-methylethan-1-amine]
Emax (5-HT2A receptor): 92.4% | EC50 (5-HT2A receptor): 14.8 nM | Emax (5-HT2B receptor): 17.6% | EC50 (5-HT2B receptor): ≥ 10000 nM | Emax (5-HT2C receptor): 102% | EC50 (5-HT2C receptor): 24.9 nM

CC(C)N(C)CCc1c[nH]c2cc(F)c(F)cc12 [Example P-155, N-(2-(5,6-difluoro-1H-indol-3-yl)ethyl)-N-methylpropan-2-amine]
Emax (5-HT2A receptor): 73.4% | EC50 (5-HT2A receptor): 10.4 nM | Emax (5-HT2B receptor): 45.4% | EC50 (5-HT2B receptor): ≥ 10000 nM | Emax (5-HT2C receptor): 83.7% | EC50 (5-HT2C receptor): 50.7 nM

CN(C)CCc1c[nH]c2c(F)cc(F)cc12 [Example P-156, 2-(5,7-difluoro-1H-indol-3-yl)-N,N-dimethylethan-1-amine]
Emax (5-HT2A receptor): 48% | EC50 (5-HT2A receptor): 41.1 nM | Emax (5-HT2B receptor): -4.13% | EC50 (5-HT2B receptor): > 10000 nM | Emax (5-HT2C receptor): 85.2% | EC50 (5-HT2C receptor): 11.3 nM

CN(C)CCc1c[nH]c2c(F)c(F)ccc12 [Example P-159, 2-(6,7-difluoro-1H-indol-3-yl)-N,N-dimethylethan-1-amine]
Emax (5-HT2A receptor): 62% | EC50 (5-HT2A receptor): 28.6 nM | Emax (5-HT2B receptor): 3.79% | EC50 (5-HT2B receptor): > 10000 nM | Emax (5-HT2C receptor): 99.3% | EC50 (5-HT2C receptor): 36.5 nM

CC(C)N(C)CCc1c[nH]c2c(F)c(F)ccc12 [Example P-161, N-(2-(6,7-difluoro-1H-indol-3-yl)ethyl)-N-methylpropan-2-amine]
Emax (5-HT2A receptor): 48% | EC50 (5-HT2A receptor): 54.8 nM | Emax (5-HT2B receptor): 1.6% | EC50 (5-HT2B receptor): > 10000 nM | Emax (5-HT2C receptor): 80.9% | EC50 (5-HT2C receptor): 418 nM

— patent US20250101038A1, “COMPOUNDS” (priority 2021, published 2025)
